Results from patent publication US9623031B2, “Compositions, methods and kits for treating cancer” (priority 2011, dated 2017).
“Also recorded” adds a separate entry of the source.

Legend:
NF-κB = NF-κB gel shift in LPS-treated RAW264.7 macrophages; format: cell-based, mouse; settings: 0.25 or 1.0 μM, then LPS 100 ng/mL 4 h
Experimental: The effect of Δ^12-PGJ3 on NF-κB and PPAPγ was examined. RAW264.7 macrophages were pretreated with DMSO, Δ^12-PGJ3 at 0.25, or 1.0 μM and subsequently stimulated with 100 ng/mL E. coli LPS for 4 h. The nuclear extracts were prepared and the binding of NΦκB to a ^32P-labeled consensus double stranded oligonucleotide probe was examined using gel shift analysis. NS=non-specific band. Lanes 1-5 represent untreated, LPS alone, DMSO+LPS, Δ^12-PGJ3 (0.25 μM)+LPS, and Δ^12-PGJ3 (1 μM)+LPS, respectively. BCR-ABL LSCs were sorted from spleens, plated, and treated with PBS, 25 nM Δ^12-PGJ3, or 9,10-dihydro 15d-PGJ2 for 0, 2 or 6 h. The cells were harvested and nuclear extracts were prepared using standard techniques. Ten μg of nuclear protein was used from each sample for the gel-shift reaction. As a positive control for NF-κB, nuclear extract from LPS-treated murine (RAW264.7) macrophages was used. Anti-p50 Ab was used with this positive control for a supershift, and excess ‘cold’ probe was used with the positive control as a ‘cold competitor’. A Western blot analysis was performed of the above-mentioned nuclear extracts from BCR-ABL LSCs treated with PBS, Δ^12-PGJ3 or 9,10-dihydro-15d-PGJ2 for various time periods (0-6 h) probed with anti-p65 and anti-β-actin antibodies. […]

[1] = system: murine erythroleukemia (MEL) cells; experiment: MEL cell apoptosis and viability (MTT, CCK-8); format: cell-based, mouse
Experimental: Cell culture. Murine erythroleukemia (MEL) cells were cultured in DMEM with 10% FBS. In order to examine the production 3-series PGs, BALB/c-derived RAW264.7 macrophage-like cells (ATCC) were cultured in DMEM containing 5% FBS, 250 nM sodium selenite, and 50 μM EPA (as BSA conjugate) for 72 h followed by stimulation with E. coli endotoxin lipopolysaccharide (LPS; Serotype 0111B4; 50 ng/ml) for 30 min. The cells were cultured in fresh DMEM for an additional 24-144 h. Cells cultured with cell culture-grade fatty acid free BSA (Sigma Aldrich) served as a control. Culture media was withdrawn at various times and analyzed for 3-series PGs as described below. Total RNA was isolated from cells or tissues using Trizol reagent as per the instructions of the supplier (Invitrogen, Carlsbad, Calif.) and cDNA was prepared using a High Capacity cDNA Reverse Transcriptase kit (Applied Biosystems, Foster City, Calif.). Semiquantitative RT-PCR for p53 and β-actin was performed with primers as described in Supplementary Methods. Nuclear and cytoplasmic protein extracts of LSCs were prepared using standard methods previously described (Vunta H et al., J Biol Chem. 2007; 282:17964-17973).
Cell viability studies. MEL cells were cultured in DMEM containing 10% FBS and treated with various commonly used anti-leukemic drugs such as daunorubicin (DNR), mitoxantrone (MIT), and cytarabine (CYT) at a final concentration […] for 24 h. […] After 24 h of drug treatment, cell proliferation was measured by MTT assay with CCK-8 kit from Dojindo Molecular Technologies, Inc. (Gaithersburg, Md.). All viability values reported are relative to untreated cells (UT) that was designated to be 100%. Results represent the mean±SEM of three independent observations.
In order to address whether MEL cells are resistant in general to chemotherapy agents, we tested whether MEL cells can be killed by apoptosis when treated with standard anti-leukemia drugs. Treatment with various commonly used anti-leukemic drugs such as daunorubicin (DNR), mitoxantrone (MIT), and cytarabine (CYT) at a final concentration 1 μM for 24 h. […] After 24 h of drug treatment, cell proliferation was measured by MTT assay with CCK-8 kit from Dojindo Molecular Technologies, Inc. (Gaithersburg, Md.). […] The results represent the mean±SEM of three independent observations.

[2] = system: BCR-ABL^+LSC transplanted mice; experiment: Murine CML model: mice transplanted with BCR-ABL+ LSCs; format: in vivo, mouse
Experimental: Induction of CML using MIGR-BCR-ABL retrovirus: MIGR-BCR-ABL and control MSCV-GFP retroviruses were obtained. […] C57BL/6 mice were treated with 5-fluorouracil (5-FU; 150 mg/Kg, Sigma, St. Louis, Mo.) to enrich for cycling HSCs. On day four after treatment bone marrow cells were harvested and infected with MIGR-BCR-ABL or MSCV-GFP control virus overnight in IMDM media containing 5% FCS and supplemented with 2.5 ng/ml IL-3 and 15 ng/ml SCF (R&D Systems Minneapolis, Minn.). 0.5×10^6 transduced cells were transplanted by retro-orbital injection into C57BL/6 recipient mice that were preconditioned with 950 Rads of irradiation. In order to increase the number of CML and control mice, 17 days after transplant GFP^+ spleen cells were isolated by FACS and 1×10^5 GFP^+ cells were transplanted into irradiated (950 Rads) secondary C57BL/6 recipients. Two weeks after transplant, mice were treated as indicated with CyPGs and vehicle control. For ex-vivo experiments, Kit^+Sca1^+Lin^−GFP^+ cells were isolated from the bone marrow or spleen of transplanted mice by FACS. The sorted cells were cultured in Methocult media M3334 (Stem Cell Technologies Vancouver BC) M3334 supplemented with Shh, SCF, and BMP4 and treated with the indicated CyPGs and vehicle controls for indicated time periods. […] The hematopoietic colonies (colony forming cells in culture, CFC) were scored.
Treatment of Mice with PGs: Mice with FV-induced erythroleukemia or MIGR-BCR-ABL induced CML were treated on the indicated days with CyPGs. Mice were treated with a daily intraperitoneal injection of Δ^12-PGJ3 (0.01-0.1 mg/kg), 15d-PGJ2 (0.1 mg/kg), or 9,10-dihydro-15d-PGJ2 (0.1 mg/kg) for 7 days. All three compounds were formulated with hydroxypropyl-β-cyclodextrin (30% w/v; Sigma; vehicle control).

residual FV-LSCs = experiment: Secondary transplants from treated FV-LSC mice into BALB/c-Stk−/− recipients; format: in vivo, mouse; settings: donor cells from treated FV-LSC transplanted mice
Experimental: Secondary transplants to test for residual LSCs after treatment with Δ^12-PGJ3: For the CML model, B6.SJLPtprca Pep3b/BoyJ (CD45.1^+) mice were treated with 5-FU and bone marrow cells enriched in cycling HSCs were isolated followed by infection with MIGR-BCR-ABL virus or control MSCV-GFP virus as described above. The cells were transplanted into C57BL/6 (CD45.2) recipient mice as mentioned earlier. The mice were treated with Δ^12-PGJ3 or vehicle control as indicated. Two weeks after treatment, spleen cells were isolated and transplanted into irradiated secondary C57BL/6 (CD45.2) recipients as described above. Two weeks after secondary transplant, mice were analyzed for WBC counts, splenomegaly and the presence of GFP^+ or CD45.1 donor cells in the bone marrow and spleen by flow cytometry. Secondary transplants were also done with FV infected mice treated with Δ^12-PGJ3 or vehicle control. BALB/c mice were infected with Friend virus as described above. The mice were treated with Δ^12-PGJ3 or vehicle control as indicated. Two weeks after treatment, spleen cells isolated from FV-infected mice and transplanted into BALB/c-Stk^−/− recipient mice (1×10^5 cells per mouse). Five weeks post transplant, the mice with secondary transplants were tested for WBC counts, splenomegaly and for the presence of M34^+Kit^+Sca1^+FV-LSCs by flow cytometry.

For `CC/C=C\C[C@H](O)C/C=C1/C(=O)C=C[C@@H]1C/C=C\CCCC(=O)O` [Δ^12-PGJ3, Δ^12-prostaglandin J3], the “NF-κB pathway, gel shift” value (NF-κB) was “did not affect the NF-κB pathway”, the “apoptosis of MEL cells (lack functional p53)” value [1] was “cannot induce apoptosis; also recorded: failed to initiate apoptosis” and the splenomegaly ([2]; 0.05 mg/kg for 1 week) was “completely alleviated splenomegaly”. The “Kit+Sca1+GFP+ LSCs in the spleen” value ([2]; 1 week treatment) was “decreased”, the “Kit+Sca1+Lin−GFP+ LSCs in the bone marrow” value ([2]; 1 week treatment) was “eradicated” and the “leukocyte counts in peripheral blood” value ([2]; 1 week treatment) was “significantly decreased the leukocyte counts”. For the same compound, the “survival and relapse, comparison with imatinib” value ([2]; Imatinib 75 mg/kg, Δ^12-PGJ3 0.025 mg/kg, 1 week) was “prolonged survival, but no relapse of leukemia”, the “relapse after last dose” value ([2]; intraperitoneal, five weeks post last dose) was “no relapse” and the survival ([2]; vehicle mice died two weeks after transplantation) was “rescued all of the mice”. The “splenomegaly, WBC counts and LSCs in secondary recipients” value (residual FV-LSCs) was “failed to develop splenomegaly or high WBC counts and lacked LSCs in their spleens”.
